From patent publication US8673617B2, “Culture medium for Haemophilus influenzae type B” (Sanofi Pasteur SA, priority 2007, dated 2014)

How the values were obtained:
[1] = system: Haemophilus influenzae serotype b; assay: PRP production in liquid wheat peptone-based culture medium as a function of heme source (sandwich ELISA on supernatant); assay type: cell-based; details: for Mean PRP / PRP in mg/l Assay 1 / PRP in mg/l Assay 2: wheat medium, 16 h
Description: (§1) The production of PRP obtained after 16 hours of bacterial culture in liquid plant peptones-based culture media in which the heme source was either hemin or protoporphyrin IX of animal origin (porcine protoporphyrin) in disodium salt form, or protoporphyrin IX of purely synthetic origin in disodium salt form was compared. The hemin and protoporphyrin IX concentration ranges in the culture media varied from about 0.010 g/l to about 2 g/l so as to obtain PRP titration curves as a function of the heme source tested and as a function of the plant peptone tested. An enzymatic hydrolysate of garden pea peptone provided by Kerry (Hy pea 7404) and a wheat peptone provided by Organotechnie (19559) were tested at a concentration in the culture medium equivalent to 0.87 g/l of protein nitrogen. By reference to the current methods for the production of PRP, PRP production was also measured in a medium that contains a peptone of animal origin, such as casein hydrolysate (HAC) provided by Solabia at a concentration in the medium equivalent to 0.87 g/l with increased concentrations of hemin (see table III).
(§2) 1.1) Preparation of the Media • 1.1.1. Stock solution of β-NAD (Fluka) at 1 g/l in water which was ultrafiltered and then sterilized by filtration through 0.22 μm. • 1.1.2. Stock solution of hemin (Sigma) at 0.25 g/l in water was ultrafiltered, comprising 5 ml of 25% aqueous ammonia (Cooper) to aid dissolution. The stock solution was sterilized by filtration through 0.22 μm. • 1.1.3. Stock solution of porcine protoporphyrin IX (Sigma) at 0.25 g/l in ultrafiltered water comprising 5 ml of 25% aqueous ammonia (Cooper) in order to facilitate the dissolution. The stock solution was sterilized by filtration through 0.22 μm. • 1.1.4. Stock solution of synthetic protoporphyrin IX at 0.25 g/l in ultrafiltered water comprising 5 ml of 25% aqueous ammonia (Cooper) in order to facilitate the dissolution. The stock solution was also heated to 80° C. in a water bath with stirring in order to complete the dissolution before being sterilized by filtration through 0.22 μm. The protoporphyrin IX, in disodium salt form, was synthesized according to the method described in the U.S. provisional patent application Ser. No. 12/057,574, filed Mar. 28, 2008 and application Ser. No. 60/943,735 and filed on Jun. 13, 2007 using the steps which are described in scheme 2. • The stock solutions of hemin and protoporphyrin IX were checked for their respective contents of active compounds after sterilizing filtration. The protoporphyrin IX and hemin contents were determined by Reversed Phase High Performance Liquid Chromatography (RP-HPLC). The chromatographic chain comprises a twin head pump module allowing the formation of a binary gradient, a programmable automatic injector, a diode array UV detector and a chromatographic column of the type Synergi 4 μm, Polar RP-80A (150×4.6) mm, ref 00F-4336-E0, Phenomenex. • The stock solution of hemin (Sigma) to be checked after filtration was diluted ⅓ in distilled water. The stock solutions of porcine protoporphyrin IX (Sigma) and of synthetic protoporphyrin IX to be checked after filtration were diluted ¼ in distilled water. In parallel, a calibration series was prepared in ammoniated water ranging from 0.025 g/l to 0.125 g/l of protoporphyrin IX from porcine protoporphyrin IX from Sigma (ref: 25838-5) and a calibration series ranging from 0.050 g/l to 0.150 g/l of hemin from hemin from Sigma (ref: H5533-256). The samples to be checked and the various solutions of the calibration series were injected in a volume of 20 μl (for the hemin solutions and samples) and of 5 μl (for the protoporphyrin IX solutions and samples). The initial mobile phase consisting of a volume for volume mixture of acetonitrile and 10 mM KH2PO4 pH 2.5 is set at a flow rate of 1 ml/min. A discontinuous gradient was then produced from this mobile phase in order to separate the molecules of interest which are detected at a wavelength of 400 nm. […]

[2] = system: Haemophilus influenzae serotype b; assay: PRP production in liquid garden pea peptone-based culture medium as a function of heme source (sandwich ELISA on supernatant); assay type: cell-based; details: for Mean PRP / PRP in mg/l Assay 1 / PRP in mg/l Assay 2: garden pea medium, 16 h
Description: as §1, with “The hemin and protoporphyrin IX concentration ranges in the culture media varied from about 0.010 g/l to about 2 g/l so as to obtain PRP titration curves as a function of the heme source tested and as a function of the plant peptone tested.” left out
as §2

[3] = porcine protoporphyrin IX 7.48 μg/l
[4] = porcine protoporphyrin IX 37.4 μg/l
[5] = porcine protoporphyrin IX 74.8 μg/l
[6] = porcine protoporphyrin IX 187 μg/l
[7] = porcine protoporphyrin IX 374 μg/l
[8] = porcine protoporphyrin IX 748 μg/l
[9] = porcine protoporphyrin IX 1122 μg/l
[10] = porcine protoporphyrin IX 1496 μg/l
[11] = synthetic protoporphyrin IX 9.96 μg/l
[12] = synthetic protoporphyrin IX 49.8 μg/l
[13] = synthetic protoporphyrin IX 99.6 μg/l
[14] = synthetic protoporphyrin IX 249 μg/l
[15] = synthetic protoporphyrin IX 498 μg/l
[16] = synthetic protoporphyrin IX 996 μg/l
[17] = synthetic protoporphyrin IX 1494 μg/l
[18] = synthetic protoporphyrin IX 1992 μg/l

## protoporphyrin IX
[1]; wheat peptone and protoporphyrin IX-based medium
  protoporphyrin IX concentration to obtain about 400 mg/l of PRP: about 100 μg/l
[1]; wheat peptone medium
  times less protoporphyrin IX than hemin required for maximum PRP production: About 15 times
[1]; wheat peptone medium (FIG. 2)
  heme source concentration required for optimum / equivalent PRP production: about 100 μg/l
[1]; wheat peptone medium, about 100 μg/l
  optimum PRP production: ≈ 400 mg/l
[2]; garden pea peptone and protoporphyrin IX-based medium
  protoporphyrin IX concentration to obtain about 400 mg/l of PRP: about 100 μg/l
[2]; garden pea peptone medium
  times less protoporphyrin IX than hemin required for maximum PRP production: About 12.5 times
[2]; garden pea peptone medium (FIG. 1)
  heme source concentration required for optimum / maximum PRP production: about 200 μg/l
[2]; garden pea peptone medium, about 200 μg/l
  optimum PRP production: ≈ 480 mg/l
[2]; plant peptone medium, 100 to 200 μg/l
  PRP concentration in the culture supernatant at maximum production: 0.4 g/L
[2]; plant peptone medium, heme source at 10 μg/l
  production of PRP (in words): significant production of PRP
[2]; plant peptone medium, heme source at 50 μg/l (FIGS. 1 and 2)
  production of PRP: ≥ 100 µg/L

## protoporphyrin IX [Porcine protoporphyrin IX]
[1]; [3]
  Mean PRP: 26.9 mg/L
  PRP in mg/l Assay 1: 25.5 mg/L
  PRP in mg/l Assay 2: 28.3 mg/L
[1]; [4]
  Mean PRP: 142.5 mg/L
  PRP in mg/l Assay 1: 136 mg/L
  PRP in mg/l Assay 2: 149 mg/L
[1]; [5]
  Mean PRP: 364 mg/L
  PRP in mg/l Assay 1: 429 mg/L
  PRP in mg/l Assay 2: 299 mg/L
[1]; [6]
  Mean PRP: 430 mg/L
  PRP in mg/l Assay 1: 452 mg/L
  PRP in mg/l Assay 2: 408 mg/L
[1]; [7]
  Mean PRP: 385.5 mg/L
  PRP in mg/l Assay 1: 397 mg/L
  PRP in mg/l Assay 2: 374 mg/L
[1]; [8]
  Mean PRP: 388 mg/L
  PRP in mg/l Assay 1: 399 mg/L
  PRP in mg/l Assay 2: 377 mg/L
[1]; [9]
  Mean PRP: 387.5 mg/L
  PRP in mg/l Assay 1: 446 mg/L
  PRP in mg/l Assay 2: 329 mg/L
[1]; [10]
  Mean PRP: 373.5 mg/L
  PRP in mg/l Assay 1: 464 mg/L
  PRP in mg/l Assay 2: 283 mg/L
[2]; [3]
  Mean PRP: 15.6 mg/L
  PRP in mg/l Assay 1: 15.1 mg/L
  PRP in mg/l Assay 2: 16.1 mg/L
[2]; [4]
  Mean PRP: 146 mg/L
  PRP in mg/l Assay 1: 143 mg/L
  PRP in mg/l Assay 2: 149 mg/L
[2]; [5]
  Mean PRP: 349 mg/L
  PRP in mg/l Assay 1: 344 mg/L
  PRP in mg/l Assay 2: 354 mg/L
[2]; [6]
  Mean PRP: 470 mg/L
  PRP in mg/l Assay 1: 450 mg/L
  PRP in mg/l Assay 2: 490 mg/L
[2]; [7]
  Mean PRP: 423.5 mg/L
  PRP in mg/l Assay 1: 415 mg/L
  PRP in mg/l Assay 2: 432 mg/L
[2]; [8]
  Mean PRP: 509 mg/L
  PRP in mg/l Assay 1: 495 mg/L
  PRP in mg/l Assay 2: 523 mg/L
[2]; [9]
  Mean PRP: 521 mg/L
  PRP in mg/l Assay 1: 492 mg/L
  PRP in mg/l Assay 2: 550 mg/L
[2]; [10]
  Mean PRP: 479 mg/L
  PRP in mg/l Assay 1: 466 mg/L
  PRP in mg/l Assay 2: 493 mg/L

## protoporphyrin IX [Synthetic protoporphyrin IX]
[1]; [11]
  Mean PRP: 30.7 mg/L
  PRP in mg/l Assay 1: 33.5 mg/L
  PRP in mg/l Assay 2: 27.9 mg/L
[1]; [12]
  Mean PRP: 318 mg/L
  PRP in mg/l Assay 1: 317 mg/L
  PRP in mg/l Assay 2: 319 mg/L
[1]; [13]
  Mean PRP: 413 mg/L
  PRP in mg/l Assay 1: 389 mg/L
  PRP in mg/l Assay 2: 437 mg/L
[1]; [14]
  Mean PRP: 347.5 mg/L
  PRP in mg/l Assay 1: 345 mg/L
  PRP in mg/l Assay 2: 350 mg/L
[1]; [15]
  Mean PRP: 394.5 mg/L
  PRP in mg/l Assay 1: 380 mg/L
  PRP in mg/l Assay 2: 409 mg/L
[1]; [16]
  Mean PRP: 402.5 mg/L
  PRP in mg/l Assay 1: 401 mg/L
  PRP in mg/l Assay 2: 404 mg/L
[1]; [17]
  Mean PRP: 354 mg/L
  PRP in mg/l Assay 1: 358 mg/L
  PRP in mg/l Assay 2: 350 mg/L
[1]; [18]
  Mean PRP: 404 mg/L
  PRP in mg/l Assay 1: 378 mg/L
  PRP in mg/l Assay 2: 430 mg/L
[2]; [11]
  Mean PRP: 11.55 mg/L
  PRP in mg/l Assay 1: 11.3 mg/L
  PRP in mg/l Assay 2: 11.8 mg/L
[2]; [12]
  Mean PRP: 136.5 mg/L
  PRP in mg/l Assay 1: 139 mg/L
  PRP in mg/l Assay 2: 134 mg/L
[2]; [13]
  Mean PRP: 356.5 mg/L
  PRP in mg/l Assay 1: 330 mg/L
  PRP in mg/l Assay 2: 383 mg/L
[2]; [14]
  Mean PRP: 488 mg/L
  PRP in mg/l Assay 1: 474 mg/L
  PRP in mg/l Assay 2: 502 mg/L
[2]; [15]
  Mean PRP: 387.5 mg/L
  PRP in mg/l Assay 1: 383 mg/L
  PRP in mg/l Assay 2: 392 mg/L
[2]; [16]
  Mean PRP: 499 mg/L
  PRP in mg/l Assay 1: 524 mg/L
  PRP in mg/l Assay 2: 474 mg/L
[2]; [17]
  Mean PRP: 513 mg/L
  PRP in mg/l Assay 1: 503 mg/L
  PRP in mg/l Assay 2: 523 mg/L
[2]; [18]
  Mean PRP: 488.5 mg/L
  PRP in mg/l Assay 1: 480 mg/L
  PRP in mg/l Assay 2: 497 mg/L
